Source: PMC9919699, “A Comprehensive Approach to Derivatization: Elemental Composition, Biochemical, and In Silico Studies of Metformin Derivatives Containing Copper and Zinc Complexes” (Molecules, 2023)
pIC50: −log10 of the molar value. Read-outs that look alike come from different tables or passages of the source.

What was measured:
α-glucosidase = α-glucosidase enzyme inhibition assay (starch substrate, anthrone reagent, 640 nm); type: biochemical; details: for pIC50: read-out: IC50
Experimental: The α-glucosidase-inhibitory activity of all derivatives of metformin was tested using the method previously described. Three test tubes were marked as test (T), blank (B), and control (C). Then, 200 µL of substrate (starch) and enzyme (α-glucosidase) was added to test tubes T and C. The contents were mixed well, and then the test tubes were incubated at 37 °C for 30 min. After incubation, trichloroacetic acid was added to all test tubes, which were then centrifuged for 10 min. Free glucose was available after the reaction with anthrone reagent (1.5 mL). The contents in the test tubes were boiled for 15 min, and the absorbance was read at a wavelength at 640 nm. The percentage inhibition was calculated using the following formula:Percentage inhibition = OD of control − OD of test tube/OD of control × 100.

α-amylase = α-amylase enzyme inhibition assay (starch, dinitro-salicylic acid, 540 nm); type: biochemical; details: for pIC50: read-out: IC50
Experimental: All derivatives of metformin were analyzed for serum amylase inhibitory activity using the Yukihoko Hara method. Three test tubes were labeled as blank (B), test (T), and control (C). Then, 2.5 mL of phosphate buffer (pH 6.8) was added to each test tube. Next, 1 mL of starch and 1 mL of 2 N sodium chloride solution were added to each test tube. The test tubes were incubated at 37 °C for 10 min. After incubation, 0.5 mL of derivatives was added to test tube T, followed by 0.2 mL of enzyme (α-amylase). All contents were mixed well, and then the tube was incubated at 37 °C for 10 min. In the control test tube, normal saline (2 N), starch solution (1 mL), and enzyme solution (0.2 mL) were added before incubating at 37 °C for 10 min. In the blank test tube, only 5.7 mL of distilled water was added. Dinitro-salicylic acid (0.2 mL) was added to all test tubes. The contents were mixed well, and the test tubes were kept in a boiling water bath for 15 min. The intensity of reddish orange was read at 540 nm. The percentage inhibitory action of serum amylase was calculated using the following formula:Percentage inhibition = OD of control − OD of test tube/OD of control × 100.

[1] = 250 µg/mL, Table 5 (MCu series)
[2] = 500 µg/mL, Table 5 (MCu series)
[3] = 1000 µg/mL, Table 5 (MCu series)
[4] = 250 µg/mL, Table 8 (MCu series)
[5] = 500 µg/mL, Table 8 (MCu series)
[6] = 1000 µg/mL, Table 8 (MCu series)

C[C@H]1O[C@H](O[C@H]2[C@H](O)[C@@H](O)[C@@H](O[C@H]3[C@H](O)[C@@H](O)C(O)O[C@@H]3CO)O[C@@H]2CO)[C@H](O)[C@@H](O)[C@@H]1N[C@H]1C=C(CO)[C@@H](O)[C@H](O)[C@H]1O (some centres unmarked) [Acarbose, reference compound]
% Inhibition (α-glucosidase; 250 µg/mL, Table 4 (Met series)): 41.84 ± 0.08%
% Inhibition (α-glucosidase; [1]): 42.65 ± 0.09%
% Inhibition (α-glucosidase; 250 µg/mL, Table 6 (MZn series)): 54.12 ± 0.09%
% Inhibition (α-glucosidase; 500 µg/mL, Table 4 (Met series)): 66.79 ± 0.09%
% Inhibition (α-glucosidase; [2]): 62.41 ± 0.28%
% Inhibition (α-glucosidase; 500 µg/mL, Table 6 (MZn series)): 74.52 ± 0.19%
% Inhibition (α-glucosidase; 1000 µg/mL, Table 4 (Met series)): 89.01 ± 0.01%
% Inhibition (α-glucosidase; [3]): 91.83 ± 0.18%
% Inhibition (α-glucosidase; 1000 µg/mL, Table 6 (MZn series)): 98.60 ± 0.10%
% Inhibition (α-amylase; 250 µg/mL, Table 7 (Met series)): 49.65 ± 0.15%
% Inhibition (α-amylase; [4]): 42.73 ± 0.46%
% Inhibition (α-amylase; 250 µg/mL, Table 9 (MZn series)): 49.59 ± 0.34%
% Inhibition (α-amylase; 500 µg/mL, Table 7 (Met series)): 72.33 ± 0.20%
% Inhibition (α-amylase; [5]): 67.52 ± 0.34%
% Inhibition (α-amylase; 500 µg/mL, Table 9 (MZn series)): 72.73 ± 0.46%
% Inhibition (α-amylase; 1000 µg/mL, Table 7 (Met series)): 91.58 ± 0.36%
% Inhibition (α-amylase; [6]): 92.73 ± 0.46%
% Inhibition (α-amylase; 1000 µg/mL, Table 9 (MZn series)): 91.71 ± 0.46%

CN(C)C(=N)NC(=N)N=Cc1ccccc1.CN(C)C(=N)NC(=N)N=Cc1ccccc1.O.O.O.O.O.O=S(=O)([O-])[O-].[Cu+2] [MCu1]
IC50 (α-glucosidase): 421.7 µg/mL
% Inhibition (α-glucosidase; [1]): 44.24 ± 0.10%
% Inhibition (α-glucosidase; [2]): 61.46 ± 0.31%
% Inhibition (α-glucosidase; [3]): 81.13 ± 0.08%
pIC50 (α-glucosidase; Table 5 (MCu series)): 3.22
% Inhibition (α-amylase; [4]): 19.44 ± 0.46%
% Inhibition (α-amylase; [5]): 43.71 ± 0.17%
% Inhibition (α-amylase; [6]): 73.31 ± 0.51%
pIC50 (α-amylase; Table 8 (MCu series)): 3.00

CN(C)C(=N)NC(=N)N=Cc1ccccc1O.CN(C)C(=N)NC(=N)N=Cc1ccccc1O.O.O.O.O.O.O=S(=O)([O-])[O-].[Cu+2] [MCu2]
% Inhibition (α-glucosidase; [1]): 31.13 ± 0.04%
% Inhibition (α-glucosidase; [2]): 48.50 ± 0.22%
% Inhibition (α-glucosidase; [3]): 77.32 ± 0.17%
% Inhibition (α-amylase; [4]): 29.52 ± 0.28%
% Inhibition (α-amylase; [5]): 44.56 ± 0.34%
% Inhibition (α-amylase; [6]): 77.56 ± 0.34%
pIC50 (α-amylase; Table 8 (MCu series)): 3.10

CN(C)C(=N)NC(=N)N=CC=Cc1ccccc1.CN(C)C(=N)NC(=N)N=CC=Cc1ccccc1.O.O.O.O.O.O=S(=O)([O-])[O-].[Cu+2] [MCu3]
% Inhibition (α-glucosidase; [1]): 29.74 ± 0.08%
% Inhibition (α-glucosidase; [2]): 49.26 ± 0.17%
% Inhibition (α-glucosidase; [3]): 78.23 ± 0.17%
pIC50 (α-glucosidase; Table 5 (MCu series)): 3.24
% Inhibition (α-amylase; [4]): 25.41 ± 0.23%
% Inhibition (α-amylase; [5]): 38.37 ± 0.40%
% Inhibition (α-amylase; [6]): 69.40 ± 0.23%
pIC50 (α-amylase; Table 8 (MCu series)): 3.10

C=NC(=N)NC(=N)N(C)C.C=NC(=N)NC(=N)N(C)C.O.O.O.O.O.O=S(=O)([O-])[O-].[Cu+2] [MCu4]
% Inhibition (α-glucosidase; [1]): 18.64 ± 0.07%
% Inhibition (α-glucosidase; [2]): 31.28 ± 0.08%
% Inhibition (α-glucosidase; [3]): 51.20 ± 0.18%
pIC50 (α-glucosidase; Table 5 (MCu series)): 3.30
% Inhibition (α-amylase; [4]): 19.48 ± 0.40%
% Inhibition (α-amylase; [5]): 31.46 ± 0.23%
% Inhibition (α-amylase; [6]): 48.32 ± 0.51%
pIC50 (α-amylase; Table 8 (MCu series)): 3.52

CC(C)=NC(=N)NC(=N)N(C)C.CC(C)=NC(=N)NC(=N)N(C)C.O.O.O.O.O.O=S(=O)([O-])[O-].[Cu+2] [MCu5]
% Inhibition (α-glucosidase; [1]): 21.73 ± 0.12%
% Inhibition (α-glucosidase; [2]): 38.21 ± 0.18%
% Inhibition (α-glucosidase; [3]): 56.45 ± 0.20%
pIC50 (α-glucosidase; Table 5 (MCu series)): 3.34
% Inhibition (α-amylase; [4]): 12.46 ± 0.23%
% Inhibition (α-amylase; [5]): 38.44 ± 0.40%
% Inhibition (α-amylase; [6]): 61.38 ± 0.23%
pIC50 (α-amylase; Table 8 (MCu series)): 3.49

CC(=NC(=N)NC(=N)N(C)C)c1ccccc1.CC(=NC(=N)NC(=N)N(C)C)c1ccccc1.O.O.O.O.O.O=S(=O)([O-])[O-].[Cu+2] [MCu6]
% Inhibition (α-glucosidase; [1]): 10.74 ± 0.11%
% Inhibition (α-glucosidase; [2]): 24.44 ± 0.15%
% Inhibition (α-glucosidase; [3]): 53.44 ± 0.33%
pIC50 (α-glucosidase; Table 5 (MCu series)): 3.54
% Inhibition (α-amylase; [4]): 23.34 ± 0.51%
% Inhibition (α-amylase; [5]): 45.45 ± 0.28%
% Inhibition (α-amylase; [6]): 64.65 ± 0.28%
pIC50 (α-amylase; Table 8 (MCu series)): 3.49

CN(C)C(=N)NC(=N)N=C(c1ccccc1)c1ccccc1.CN(C)C(=N)NC(=N)N=C(c1ccccc1)c1ccccc1.O.O.O.O.O.O=S(=O)([O-])[O-].[Cu+2] [MCu7]
% Inhibition (α-glucosidase; [1]): 29.47 ± 0.18%
% Inhibition (α-glucosidase; [2]): 37.37 ± 0.30%
% Inhibition (α-glucosidase; [3]): 48.29 ± 0.28%
pIC50 (α-glucosidase; Table 5 (MCu series)): 3.49
% Inhibition (α-amylase; [4]): 15.37 ± 0.23%
% Inhibition (α-amylase; [5]): 38.31 ± 0.46%
% Inhibition (α-amylase; [6]): 55.43 ± 0.23%
pIC50 (α-amylase; Table 8 (MCu series)): 3.70
